Assay results published in ChEMBL document CHEMBL1149535, “2-Arylimino-5,6-dihydro-4H-1,3-thiazines as a new class of cannabinoid receptor agonists. Part 2: orally bioavailable compounds” (Bioorg Med Chem Lett, 2007).

Legend:
Cannabinoid receptor 2 [1] = biological target: Cannabinoid receptor 2 (Homo sapiens, UniProt P34972); experiment: Binding affinity to human CB2 receptor
Cannabinoid receptor 1 [2] = biological target: Cannabinoid receptor 1 (Homo sapiens, UniProt P21554); experiment: Binding affinity to human CB1 receptor
Sequence of Cannabinoid receptor 1 (Homo sapiens, UniProt P21554) (P21554 whole entry): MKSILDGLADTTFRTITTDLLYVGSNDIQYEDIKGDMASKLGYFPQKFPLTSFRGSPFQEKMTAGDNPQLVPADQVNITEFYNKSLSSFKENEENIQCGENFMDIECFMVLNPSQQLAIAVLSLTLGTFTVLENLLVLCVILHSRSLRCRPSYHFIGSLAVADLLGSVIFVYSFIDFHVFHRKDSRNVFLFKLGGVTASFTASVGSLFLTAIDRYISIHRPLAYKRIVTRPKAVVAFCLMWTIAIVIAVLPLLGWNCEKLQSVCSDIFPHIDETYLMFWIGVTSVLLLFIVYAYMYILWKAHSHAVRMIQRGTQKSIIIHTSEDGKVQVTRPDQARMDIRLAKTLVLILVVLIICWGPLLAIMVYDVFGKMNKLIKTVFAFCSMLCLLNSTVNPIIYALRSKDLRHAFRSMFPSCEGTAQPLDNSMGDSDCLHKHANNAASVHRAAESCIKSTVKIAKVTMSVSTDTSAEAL

[3] = Total clearance in rat at 0.5 mg/kg, iv and 1 mg/kg, po; format: ADME, organism-based; conditions: in vivo
[4] = Oral bioavailability in rat at 1 mg/kg; format: ADME, organism-based; conditions: in vivo
Cannabinoid receptor 2 [5] = biological target: Cannabinoid receptor 2 (Mus musculus, UniProt P47936); experiment: Binding affinity to mouse CB2 receptor
Sequence of Cannabinoid receptor 2 (Mus musculus, UniProt P47936) (P47936 whole entry): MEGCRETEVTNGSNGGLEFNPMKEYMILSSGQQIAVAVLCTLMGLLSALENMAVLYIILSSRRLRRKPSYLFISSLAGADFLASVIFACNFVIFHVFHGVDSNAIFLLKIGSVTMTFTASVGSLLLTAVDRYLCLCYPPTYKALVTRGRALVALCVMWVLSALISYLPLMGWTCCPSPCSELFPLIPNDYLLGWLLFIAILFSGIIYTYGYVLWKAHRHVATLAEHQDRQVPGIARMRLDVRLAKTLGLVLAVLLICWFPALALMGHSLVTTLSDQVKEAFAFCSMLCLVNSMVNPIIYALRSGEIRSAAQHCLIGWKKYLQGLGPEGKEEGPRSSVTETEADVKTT

Cannabinoid receptor 1 [6] = biological target: Cannabinoid receptor 1 (Mus musculus, UniProt P47746); experiment: Binding affinity to mouse CB1 receptor
Sequence of Cannabinoid receptor 1 (Mus musculus, UniProt P47746) (P47746 whole entry): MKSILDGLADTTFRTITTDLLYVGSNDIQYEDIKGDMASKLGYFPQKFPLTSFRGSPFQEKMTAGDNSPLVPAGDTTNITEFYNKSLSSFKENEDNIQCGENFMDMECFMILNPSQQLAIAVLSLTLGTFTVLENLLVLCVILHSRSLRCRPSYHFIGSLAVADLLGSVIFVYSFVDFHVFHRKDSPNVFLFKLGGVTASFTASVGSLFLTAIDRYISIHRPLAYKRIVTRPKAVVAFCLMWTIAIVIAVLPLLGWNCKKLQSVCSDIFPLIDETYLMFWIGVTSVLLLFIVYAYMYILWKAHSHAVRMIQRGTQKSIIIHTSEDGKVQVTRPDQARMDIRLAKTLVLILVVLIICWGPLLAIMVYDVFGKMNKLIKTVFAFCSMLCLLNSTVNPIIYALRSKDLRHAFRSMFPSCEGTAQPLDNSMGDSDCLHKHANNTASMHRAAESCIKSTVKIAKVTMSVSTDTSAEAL

[7] = Half life in rat at 2 mg/kg, iv and 30 mg/kg, po; format: ADME, organism-based; conditions: in vivo
[8] = Total clearance in rat at 2 mg/kg, iv and 30 mg/kg, po; format: ADME, organism-based; conditions: in vivo
[9] = AUC in rat at 30 mg/kg, po; format: ADME, organism-based; design: dose 30 mg/kg, route oral; conditions: plasma
[10] = Oral bioavailability in rat at 30 mg/kg; format: ADME, organism-based; conditions: in vivo
Mus musculus [11] = experiment: Analgesic activity against formalin-induced acute pain in iv dosed mouse; format: functional
Mus musculus [12] = experiment: Analgesic activity against formalin-induced inflammatory pain in iv dosed mouse; format: functional
Mus musculus [13] = experiment: Analgesic activity against formalin-induced acute pain in po dosed mouse; format: functional
Mus musculus [14] = experiment: Analgesic activity against formalin-induced inflammatory pain in po dosed mouse; format: functional

Sequence of Cannabinoid receptor 2 (Homo sapiens, UniProt P34972) (P34972 whole entry): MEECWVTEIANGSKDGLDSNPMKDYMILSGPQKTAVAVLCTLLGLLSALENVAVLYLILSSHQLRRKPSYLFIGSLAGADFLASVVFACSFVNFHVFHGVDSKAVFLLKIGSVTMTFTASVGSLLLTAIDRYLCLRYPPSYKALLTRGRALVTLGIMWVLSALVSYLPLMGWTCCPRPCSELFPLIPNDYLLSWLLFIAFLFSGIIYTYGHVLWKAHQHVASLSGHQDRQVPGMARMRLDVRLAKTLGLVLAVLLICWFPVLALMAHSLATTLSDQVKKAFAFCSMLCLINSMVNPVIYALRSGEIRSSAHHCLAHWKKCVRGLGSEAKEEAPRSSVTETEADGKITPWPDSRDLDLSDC

Row | Compound | Ki (Cannabinoid receptor 2 [1]) [nM] | Ki (Cannabinoid receptor 1 [2]) [nM] | clearance [3] [mL/min/kg] | bioavailability [4] [%] | also measured
1 | CSC(=S)N1CC2(CCCCC2)CS/C1=N\c1cccc(C(C)C)c1 | 2.5 | 100 | – | – | –
2 | COc1ccccc1/N=C1\SCC2(CCCCC2)CN1C(=S)SC | 1.1 | 13 | 75.9 | 0.4 | –
3 | COc1cccc(/N=C2\SCC3(CCCCC3)CN2C(=S)SC)c1 | 1 | 108 | 45.1 | 13 | –
4 | COc1ccc(/N=C2\SCC3(CCCCC3)CN2C(=S)SC)cc1 | 3.8 | 671 | – | – | –
5 | CCCc1ccc(/N=C2\SCC3(CCCCC3)CN2C(=S)SC)cc1 | 7 | 514 | – | – | –
6 | CSC(=S)N1CC2(CCCCC2)CS/C1=N\c1ccc(C(F)(F)F)cc1 | 18 | 1730 | – | – | –
7 | CSC(=S)N1CC2(CCCCC2)CS/C1=N\c1cccc2c1CCCC2 | 0.2 | 15 | 19.1 | 44 | Ki (Cannabinoid receptor 2 [5]): 0.7 nM; Ki (Cannabinoid receptor 1 [6]): 6 nM; half-life [7]: 4.1 h; clearance [8]: 23.3 mL/min/kg; AUC [9]: 1500 ng·h/mL; bioavailability [10]: 7%; ED50 (Mus musculus [11]): 0.3 mg/kg; ED50 (Mus musculus [12]): 0.2 mg/kg; ED50 (Mus musculus [13]): 2.5 mg/kg; ED50 (Mus musculus [14]): 4 mg/kg
8 | CSC(=S)N1CC2(CCCCC2)CS/C1=N\c1ccc2c(c1)CCCC2 | 24 | 396 | – | – | –
9 | CSC(=S)N1CC2(CCCCC2)CS/C1=N\c1ccc(OC(F)(F)F)cc1 | 6 | 1500 | 7.4 | 24 | Ki (Cannabinoid receptor 2 [5]): 7 nM; Ki (Cannabinoid receptor 1 [6]): 1210 nM; half-life [7]: 2.4 h; clearance [8]: 25.9 mL/min/kg; AUC [9]: 3900 ng·h/mL; bioavailability [10]: 20%; ED50 (Mus musculus [11]): > 20 mg/kg; ED50 (Mus musculus [12]): > 20 mg/kg; ED50 (Mus musculus [13]): > 100 mg/kg; ED50 (Mus musculus [14]): > 100 mg/kg
10 | CCOc1ccccc1/N=C1\SCC2(CCCCC2)CN1C(=S)SC | 6.3 | 358 | – | – | –
11 | CSC(=S)N1CC2(CCCCC2)CS/C1=N\c1ccccc1C(F)(F)F | 1.1 | 418 | – | – | –
12 | CSC(=S)N1CC2(CCCCC2)CS/C1=N\c1cccc(C)c1C | 1 | 114 | – | – | –
13 | CSC(=S)N1CC2(CCCCC2)CS/C1=N\c1cccc2ccccc12 | 6 | 30 | 17.7 | 53 | Ki (Cannabinoid receptor 2 [5]): 4 nM; Ki (Cannabinoid receptor 1 [6]): 6.8 nM; half-life [7]: 1.5 h; clearance [8]: 30.1 mL/min/kg; AUC [9]: 6100 ng·h/mL; bioavailability [10]: 36%; ED50 (Mus musculus [11]): 0.4 mg/kg; ED50 (Mus musculus [12]): 0.4 mg/kg; ED50 (Mus musculus [13]): 1.5 mg/kg; ED50 (Mus musculus [14]): 1 mg/kg
14 | CSC(=S)N1CC2(CCCCC2)CS/C1=N\c1cccc2nsnc12 | 1.3 | 44 | 60.4 | – | –
15 | CSC(=S)N1CC2(CCCCC2)CS/C1=N\c1cccc2nonc12 | 0.9 | 246 | – | – | –
16 | CSC(=S)N1CC(C)(C)CS/C1=N\c1ccccc1C(C)C | – | > 5000 | 63.4 | 10 | –
17 | CSC(=S)N1CC2(CC2)CS/C1=N\c1ccccc1C(C)C | 65 | – | 85.1 | 14 | –
18 | CSC(=S)N1CC2(CCCC2)CS/C1=N\c1ccccc1C(C)C | 1 | 541 | 54.2 | 8.9 | –
19 | CSC(=S)N1CC2(CCCCC2)CS/C1=N\c1cccc2c1CCCN2C | 1.1 | 85 | – | – | –
20 | CSC(=S)N1CC2(CCCCC2)CS/C1=N\c1cccc2c1CCC2 | 5 | 243 | – | – | –
21 | CCC1(CC)CS/C(=N\c2ccccc2C(C)C)N(C(=S)SC)C1 | 9 | > 5000 | 48.3 | 19 | –
22 | CSC(=S)N1CC2(CCCCC2)CS/C1=N\c1ccc(C(C)C)cc1 | 23 | 1260 | – | – | –
23 | CCc1ccc(/N=C2\SCC3(CCCCC3)CN2C(=S)SC)cc1 | 1.2 | 95 | – | – | –
24 | CSC(=S)N1CC2(CCCCC2)CS/C1=N\c1ccc(C#N)cc1 | 2.3 | 173 | – | – | –
25 | CSC(=S)N1CC2(CCCCC2)CS/C1=N\c1ccccc1OC(F)(F)F | 12 | 711 | – | – | –
26 | CSC(=S)N1CC2(CCCCC2)CS/C1=N\c1cccc2ncccc12 | 11 | 763 | 121 | 42 | –
27 | CSC(=S)N1CC2(CCCCC2)CS/C1=N\c1ccccc1C(C)C | 0.8 | 122 | 18.6 | 32 | Ki (Cannabinoid receptor 2 [5]): 1.2 nM; Ki (Cannabinoid receptor 1 [6]): 80 nM; half-life [7]: 2.5 h; clearance [8]: 38.2 mL/min/kg; AUC [9]: 3200 ng·h/mL; bioavailability [10]: 24%; ED50 (Mus musculus [11]): 1.2 mg/kg; ED50 (Mus musculus [12]): 1.1 mg/kg; ED50 (Mus musculus [13]): 17.5 mg/kg; ED50 (Mus musculus [14]): 17.5 mg/kg
28 | CCCCCc1cc(O)c2c(c1)OC(C)(C)[C@@H]1CCC(C)=C[C@@H]21 [DRONABINOL] | – | – | – | – | ED50 (Mus musculus [11]): 0.4 mg/kg; ED50 (Mus musculus [12]): 0.3 mg/kg
29 | CN1CC[C@]23c4c5ccc(O)c4O[C@H]2[C@@H](O)C=C[C@H]3[C@H]1C5 [MORPHINE] | – | – | – | – | ED50 (Mus musculus [11]): 1.1 mg/kg; ED50 (Mus musculus [12]): 1.1 mg/kg; ED50 (Mus musculus [13]): 27.3 mg/kg; ED50 (Mus musculus [14]): 9.8 mg/kg
